In general, Ki refers to a dissociation constant, usually derived from enzyme kinetics or from competition with a known ligand.

The values that follow come from patent US7250515B2, “Thiazolinone 3,4-disubstituted quinolines” (Hoffman-La Roche Inc., priority 2004, dated 2007).

Structures can show the parent of a compound that is named as a salt.

For the test, the target named is T1, recombinant human CDK1/Cyclin B complex (Homo sapiens, UniProt P06493).
T1 construct: made in house; host or cells: High Five insect cells (baculovirus); Rb substrate made in E. coli M15
T1 sequence (P06493 whole entry): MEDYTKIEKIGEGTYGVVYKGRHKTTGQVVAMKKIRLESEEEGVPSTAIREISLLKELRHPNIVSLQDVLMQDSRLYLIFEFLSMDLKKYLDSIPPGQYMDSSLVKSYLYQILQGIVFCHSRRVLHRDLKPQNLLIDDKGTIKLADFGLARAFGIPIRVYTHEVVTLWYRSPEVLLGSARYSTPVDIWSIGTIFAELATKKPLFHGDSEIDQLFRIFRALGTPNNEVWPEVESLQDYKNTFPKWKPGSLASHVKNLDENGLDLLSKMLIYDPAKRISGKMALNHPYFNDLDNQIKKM
T1 sequence (P14635 whole entry partner): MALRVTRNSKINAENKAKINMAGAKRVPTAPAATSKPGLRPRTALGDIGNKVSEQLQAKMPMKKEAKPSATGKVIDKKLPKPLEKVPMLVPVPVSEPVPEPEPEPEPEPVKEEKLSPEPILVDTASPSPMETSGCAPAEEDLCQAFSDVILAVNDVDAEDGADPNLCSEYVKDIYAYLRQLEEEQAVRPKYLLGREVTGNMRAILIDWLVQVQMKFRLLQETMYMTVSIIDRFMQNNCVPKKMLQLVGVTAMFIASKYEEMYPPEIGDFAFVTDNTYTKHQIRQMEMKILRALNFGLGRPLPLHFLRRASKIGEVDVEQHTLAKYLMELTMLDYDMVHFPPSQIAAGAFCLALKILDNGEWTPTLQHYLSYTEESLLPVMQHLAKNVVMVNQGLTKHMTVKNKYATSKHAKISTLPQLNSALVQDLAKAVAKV
Description: CDK1/Cyclin B kinase assay (FlashPlate or HTRF), Rb protein substrate. In kind it is biochemical. To be noted: Ki=IC50/(1+[S]/Km). As to the method: To determine inhibition of CDK1 activity, either FlashPlate™ (NEN™-Life Science Products) assay or HTRF assay was performed. Both types of kinase assays were carried out using recombinant human CDK1/Cyclin B complex. GST-cyclinB (GST-cycB) and CDK1cDNA clones in baculovirus vectors were provided by Dr. W. Harper at the Baylor College of Medicine, Houston, Tex. Proteins were co-expressed in High Five™ insect cells and the complex was purified on glutathione Sepharose resin (Pharmacia, Piscataway, N.J.) as previously described (Harper, J. W. et al. Cell 1993, 75, 805-816). A 6×-Histidine tagged truncated form of retinoblastoma (Rb) protein (amino acid 386-928) was used as the substrate for the CDK1/Cyclin B assay (the expression plasmid was provided by Dr. Veronica Sullivan, Department of Molecular Virology, Roche Research Centre, Welwyn Garden City, United Kingdom). The Rb protein is a natural substrate for phosphorylation by CDK1 (see Herwig and Strauss Eur. J. Biochem. Vol. 246 (1997) pp. 581-601 and the references cited therein). The expression of the 62 Kd protein was under the control of an IPTG inducible promoter in an M15 E. coli strain. Cells were lysed by sonication and purification was carried out by binding lysates at pH 8.0 to a Ni-chelated agarose column pretreated with 1 mM imidazole. The resin was then washed several times with incrementally decreasing pH buffers to pH 6.0, and eluted with 500 mM imidazole. Eluted protein was dialyzed against 20 mM HEPES pH 7.5, 30% glycerol, 200 mM NaCl, and 1 mM DTT. Purified Rb fusion protein stocks were quantitated for protein concentration, aliquoted, and stored at −70° C.
For the FlashPlate kinase assay, 96-well FlashPlates were coated with Rb protein at 10 μg/ml, using 100 μl per well. Plates were incubated at 4° C. overnight or at room temperature for 3 hours on a shaker. To control for nonspecific phosphorylation, one row of wells was coated with 100 μl/well coating buffer (20 mM HEPES, 0.2 M NaCl). Plates were then washed twice with wash buffer (0.01% Tween 20 in phosphate-buffered saline). Compounds to be tested (“test compounds”) were added to the wells at 5× final concentration. Reactions were initiated by immediate addition of 40 μl reaction mix (25 mM HEPES, 20 mM MgCl2, 0.002% Tween 20, 2 mM DTT, 1 μM ATP, 4 nM 33P-ATP) and a sufficient amount of enzyme to give counts that were at least 10-fold above background. Plates were incubated at room temperature on a shaker for 30 minutes. Plates were washed four times with the wash buffer, sealed, and counted on the TopCount scintillation counter (Packard Instrument Co., Downers Grove, Ill.]. The percent inhibition of Rb phosphorylation, which is a measure of the inhibition of CDK activity, was determined according to the following formula:
[formula] where “test compound” refers to the average counts per minute of the test duplicates, “nonspecific” refers to the average counts per minute when no CDK1/Cyclin B, etc., was added, and “total” refers to the average counts per minute when no compound was added. The IC50 value is the concentration of test compound that reduces by 50% the protein-kinase induced incorporation of the radiolabel under the test conditions described. The value of the inhibitor constant Ki is calculated by the following: Ki=IC50/(1+[S]/Km), where [S] is the ATP concentration and Km is Michaelis constant.
The Homofeneous Time Resolved Fluorescence (HTRF) kinase assay was carried out in 96-well polypropylene plates (BD Biosciences, Bedford, Mass.). Test compounds were first dissolved in DMSO, and then diluted in kinase assay buffer 1 (25 mM HEPES, pH7.0, 8 mM MgCl2, 1.5 mM DTT, and 162 μM ATP) with DMSO concentration at 15%. The CDK1/Cyclin B enzyme was diluted in kinase assay buffer 2 (25 mM HEPES, pH 7.0, 8 mM MgCl2, 0.003% Tween 20, 0.045% BSA, 1.5 mM DTT, and 0.675 μM Rb protein). […]
On the technique in general: TR-FRET usually uses a lanthanide donor and a delayed reading to cut background.

For the molecule `COC(=O)c1cnc2ccc(/C=C3\SC(N[C@@H](CO)c4ccccc4)=NC3=O)cc2c1OC` [Example 5, 6-[2-((R)-2-Hydroxy-1-phenyl-ethylamino)-4-oxo-4H-thiazol-(5Z)-ylidenemethyl]-4-methoxy-quinoline-3-carboxylic acid methyl ester], the Ki was 179 nM.

In the case of `COc1c(C(=O)N(C)C)cnc2ccc(/C=C3\SC(N[C@@H]4C[C@H]4c4ccccc4)=NC3=O)cc12` [Example 10, 4-Methoxy-6-[4-oxo-2-((1R,2S)-2-phenyl-cyclopropylamino)-4H-thiazol-(5Z)-ylidenemethyl]-quinoline-3-carboxylic acid dimethylamide], the Ki turned out to be 958 nM.

Turning to `CCOc1c(C#N)cnc2ccc(/C=C3\SC(N)=NC3=O)cc12` [Example 15, 6-[2-Amino-4-oxo-4H-thiazol-(5Z)-ylidenemethyl]-4-ethoxy-quinoline-3-carbonitrile], the Ki amounted to 8 nM.

For `CCOc1c(C#N)cnc2ccc(/C=C3\SC(NCCn4ccnc4)=NC3=O)cc12` [Example 20, 4-Ethoxy-6-[2-(2-imidazol-1-yl-ethylamino)-4-oxo-4H-thiazol-(5Z)-ylidenemethyl]-quinoline-3-carbonitrile], the Ki turned out to be 228 nM.

As to `CCOc1c(C#N)cnc2ccc(/C=C3\SC(NCCOCCOC)=NC3=O)cc12` [Example 25, 6-[2-[2-(2-methoxy-ethoxy)-ethylamino]-4-oxo-4H-thiazol-(5Z)-ylidenemethyl]-4-ethoxy-quinoline-3-carbonitrile], the Ki came to 1000 nM.

For `N#Cc1cnc2ccc(/C=C3\SC(N)=NC3=O)cc2c1OC1CCNCC1` [Example 30, 6-[2-Amino-4-oxo-4H-thiazol-(5Z)-ylidenemethyl]-4-(piperidin-4-yloxy)-quinoline-3-carbonitrile hydrochloride], the Ki came out at 184 nM.

With `CC(C)Sc1c(C#N)cnc2ccc(/C=C3\SC(N)=NC3=O)cc12` [Example 40, 6-[2-amino-4-oxo-4H-thiazol-(5Z)-ylidenemethyl]-4-isopropylsulfanyl-quinoline-3-carbonitrile], the Ki was 16 nM.

As for `N#Cc1cnc2ccc(/C=C3\SC(N)=NC3=O)cc2c1SCCCO` [Example 50, 6-[2-Amino-4-oxo-4H-thiazol-(5Z)-ylidenemethyl]-4-(3-hydroxy-propylsulfanyl)-quinoline-3-carbonitrile], the Ki was 65 nM.

As to `CC(C)Oc1c(C#N)cnc2ccc(/C=C3\SC(NN)=NC3=O)cc12` [Example 60, 6-[2-Hydrazino-4-oxo-4H-thiazol-(5Z)-ylidenemethyl]-4-isopropoxy-quinoline-3-carbonitrile hydrochloride salt], the Ki stood at 28 nM.

For `CC(C)(C)COc1c(C#N)cnc2ccc(/C=C3\SC(NC4CC4)=NC3=O)cc12` [Example 70, 6-[2-Cyclopropylamino-4-oxo-4H-thiazol-(5Z)-ylidenemethyl]-4-(2,2-dimethyl-propoxy)-quinoline-3-carbonitrile], the inhibition constant (Ki) was found to be 6 nM.

`CCCCOc1c(C#N)cnc2ccc(/C=C3\SC(N)=NC3=O)cc12` [Example 80, 6-[2-Amino-4-oxo-4H-thiazol-(5Z)-ylidenemethyl]-4-butoxy-quinoline-3-carbonitrile]: the Ki is 1 nM.
